Source: patent publication US20080299076A1, “Compunds and compositions that cause non-apoptotic cell death and uses thereof” (priority 2006, published 2008)

Key:
[1] = system: BJ-TERT/LT/ST/RAS^V12 cells; assay: Cell death, viable cells counted using a hemacytometer; assay type: cell-based, human; conditions: 13 μM erastin A1, 23 μM antimycin, 126 μM 2-methoxyestradiol or the combinations
[2] = system: BJ-TERT/LT/ST/RAS^V12 cells; assay: Suppression of erastin-induced cell death (suppressor screen and follow-up); assay type: cell-based, human; conditions: co-treatment with erastin
PARP1 = PARP1 cleavage (western blot); assay type: cell-based, human; conditions: BJ-TERT/LT/ST/RAS^V12 cells; staurosporine 1 μM 6 h, camptothecin 1 μM 18 h, erastin 20 μg/mL
Procedure: BJ-TERT/LT/ST/RAS^V12 tumor cells were seeded in six-well dishes, incubated overnight at 37° C. with 5% CO2 and were treated with nothing (NT), staurosporine (ST, 1 μM) for 6 h, camptothecin (C, 1 μM) for 18 h, or erastin (20 μg/mL) for the indicated time, lysed and analyzed by western blot with an anti-PARP1 antibody. A relatively high concentration of erastin was used to ensure loss of PARP cleavage was not due to a concentration-dependent effect.
BJ-TERT/LT/ST/RAS^V12 cells were seeded in polystyrene 100×20 mm dishes (Falcon/#353003) in 10 ml of media. Three million cells were seeded in each dish. After overnight incubation at 37° C. with 5% CO2, BJ-TERT/LT/ST/RAS^V12 cells were treated with nothing, staurosporine (1 μM) for 6 h, camptothecin (1 μM) for 18 h or erastin (20 μg/mL) for 6, 10, 12, 12.5, 13, 14, 18 or 26 h, and prepared for western blotting.

[3] = system: BJ-TERT/LT/ST/RAS^V12 cells; assay: Annexin V staining; assay type: cell-based, human; conditions: camptothecin 1 μM
Procedure: The percentage of cells in the indicated Ml region were 6%, 6%, and 38% in untreated, erastin-treated (9 μM), and camptothecin-treated (1 μM), respectively.

[4] = system: BJ-TERT/LT/ST/RAS^V12 cells; assay: Alamar Blue viability assay; assay type: cell-based, human; conditions: BJ-TERT/LT/ST/RAS^V12 cells versus BJ-TERT cells
Procedure: (a) Calu-1 lung carcinoma cells harboring oncogenic KRAS were infected with lentivirus containing shRNAs targeting KRAS or GFP. Sequences of shRNAs are indicated by starting nucleotide (nt) in the KRAS mRNA coding sequence. Cells were treated with erastin and viability measured by Trypan Blue exclusion. (b) Knockdown of KRAS was confirmed by western blot. (c,d) A673 cells harboring oncogenic BRAF were infected with lentiviral shRNAs targeting BRAF exon 5 (c) or the 5′ UTR (d), luciferase (LUC) (c) or GFP (d). Cells were treated with erastin and viability measured using Alamar Blue (c) and Trypan Blue (d). (e) Knockdown of BRAF was confirmed by western blot. […] BJ-TERT/LT/ST/RAS^V12 cells were treated with erastin alone or in with a MEK inhibitor U0126 (20 μM), MEK inhibitor I (10 μM) or MEK 1/2 inhibitor (50 μM). After 48 h, viability was determined using Trypan Blue. (g) Structures of certain erastin and related analogs. (h) and (i) Dose-response curves were measured for erastin A3 and erastin B2 in BJ-TERT/LT/ST/RAS^V12 cells (black squares) or BJ-TERT cells (grey circles). (j) Calu-1 lung carcinoma cells harboring oncogenic KRAS were infected with lentivirus containing shRNAs targeting KRAS or GFP. Sequences of shRNAs are indicated by starting nucleotide (nt) in the KRAS mRNA coding sequence. Cells were treated with erastin and viability (y-axis) measured by Trypan Blue exclusion. Cells were treated with erastin for 24 hours, and percent inhibition of viability (y-axis) measured using Alamar Blue (k) and Trypan Blue (l). (m) Structures of erastin and related analogs. (n) Dose-response curves were measured for erastin A6, erastin B2, erastin A8 and erastin A9 in BJ-TERT/LT/ST/RAS^V12 cells (squares) or BJ-TERT cells (circles) using Alamar Blue.
Alamar Blue metabolism: 10% Alamar Blue was added to assay plates, which were then incubated for an additional 16 hours. Red fluorescence, resulting from reduction of Alamar Blue, was detected on a Victor3 platereader (ex: 530, em: 590).
Table 2. Activity of RAS-selective lethal compound erastin in tumor cell lines. IC50 values (ng/mL) are shown using the Alamar Blue viability assay. BJ engineered tumor cells express TERT, LT, ST, and oncogenic RAS. Isogenic RAS^V12 lacking cells are identical but lack HRAS^V12. BJ-DRD cells are derived from BJ cells and contain TERT, oncogenic RAS, a truncated from of p53 (p53DD) that disrupts the tetramerization of endogenous p53, a CDK4(R24C) mutant resistant to inhibition by p16INK4A and p151NK4B (the major negative regulators of CDK4) and cyclin D1. These latter protein substitute for LT. HCT-116, A549, Calu-1, and MIA PaCa-2 are tumor cells derived from cancers (colon, lung, lung and pancreatic, respectively) known to have activating mutations in RAS.

murine VDAC3 = target: T1, murine VDAC3 (Mus musculus, UniProt Q60931); assay: NADH oxidation assay in mitochondria from yeast expressing VDAC3; assay type: biochemical; conditions: mitochondria from yeast expressing VDAC3 in place of yeast VDAC
T1 construct: expressed in transfected cells; host or cells: yeast (S. cerevisiae) with murine VDAC3 in place of yeast VDAC; isolated mitochondria
T1 sequence (Q60931 1-283): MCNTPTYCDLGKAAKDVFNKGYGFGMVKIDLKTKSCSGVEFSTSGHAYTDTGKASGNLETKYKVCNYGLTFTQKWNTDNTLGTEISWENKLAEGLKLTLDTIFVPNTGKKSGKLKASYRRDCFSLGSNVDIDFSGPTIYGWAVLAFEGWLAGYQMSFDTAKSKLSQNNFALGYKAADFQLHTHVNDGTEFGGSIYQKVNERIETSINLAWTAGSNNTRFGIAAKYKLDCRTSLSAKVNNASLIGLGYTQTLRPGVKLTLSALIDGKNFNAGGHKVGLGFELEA
Procedure: In certain embodiments, mitochondria can be purified from yeast that had been engineered to express murine or human VDAC3 in place of yeast VDAC.
Mitochondria were isolated from yeast expressing murine VDAC3 in place of yeast VDAC. The rate of NADH oxidation by an inner membrane NADH dehydrogenase was determined by measuring the change in NADH absorbance over time. Mitochondria with a disrupted outer membrane show an increased rate of NADH oxidation (red, shocked) compared to untreated mitochondria (green).
NADH oxidation in the mitochondria was measured by resuspending mitochondria isolated from yeast in R-buffer (0.65 M sucrose, 10 mM HEPES (pH 7.5), 10 mM KH2PO4, 5 mM KCl, 5 mM, MgCl2) to a final concentration of 100 μg/ml. Mitochondrial concentration was measured by dissolving mitochondria in 0.6% SDS and reading absorbance at 280 nm. The mitochondrial suspension was then incubated with 25 μM NADH, and the absorbance at 340 nm monitored over a 15 minute period. The assay was repeated in the presence of erastin. To assess mitochondrial intactness, a parallel assay was run in which mitochondria were hypotonically shocked prior to addition of NADH. The mitochondrial pellet was resuspended in dH2O and incubated on ice for 3 minutes to disrupt the outer mitochondrial membrane. 2× R-buffer was then added to restore normal osmotic conditions.

VDAC2 = target: T2, VDAC2 (Homo sapiens, UniProt P45880); assay: VDAC2 binding assay (competition with radiolabelled erastin A9); conditions: competition with tritium-labeled erastin A9
T2 construct: hexahistidine (pET-15b, thrombin site) (N); made in house; host or cells: E. coli
T2 sequence (P45880 1-294): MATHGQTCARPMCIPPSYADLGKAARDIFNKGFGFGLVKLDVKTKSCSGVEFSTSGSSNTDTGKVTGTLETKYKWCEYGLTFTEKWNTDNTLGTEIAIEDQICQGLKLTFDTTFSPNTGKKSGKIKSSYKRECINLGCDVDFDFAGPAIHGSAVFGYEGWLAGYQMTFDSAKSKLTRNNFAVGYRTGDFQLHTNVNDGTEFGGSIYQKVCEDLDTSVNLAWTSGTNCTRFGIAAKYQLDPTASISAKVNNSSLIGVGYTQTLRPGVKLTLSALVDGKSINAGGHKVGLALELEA
Procedure: Given the interactions between erastin and VDAC using affinity-based target identification and VDAC functional assays, the direct binding of erastin to VDACs was investigated.
VDAC2 protein was isolated from E. coli using a modified version of the protocol originally described by Koppel et al. Bacterial cultures were grown in LB containing 50 mg/L ampicillin to an OD of 0.6, and induced using […] IPTG overnight. Cultures were harvested by centrifugation at 6000×g for 10 min. The pellet was then washed with dH2O and resuspended in buffer (20% sucrose, 20 mM Tris, pH 8.0, […] lysozyme) and incubated at 25° C. for 10 minutes. The lysate was then sonicated for 2×30 seconds and centrifuged at 15000×g for 20 minutes. The pellet was resuspended in resuspension buffer (4.5 M guanidine-HCl, 0.1M NaCl, 20 mM Tris, pH 8.0) and incubated for 1 hour at 25° C. The suspension was then centrifuged (20 minutes, 15000×g), and the supernatant was loaded on a NI-NTA Superflow column (Qiagen) pre-equilibrated with 5 volumes of resuspension buffer. The column was washed with 5 column volumes of resuspension buffer containing 10 mM imidazole. The protein was then eluted using resuspension buffer containing 225 mM imidazole. The eluate was dialysed against 0.1 M NaCl, 20 mM Tris, pH 8.0, and 2% LDAO (Fluka) overnight, and then concentrated via centrifugation to 4 mg/mL.
To assay direct binding of erastin analogs, 40 μg of purified VDAC2 was resuspended in 100 μL of Binding Buffer (25 mM HEPES, pH 8.0, 0.1% BSA, 7 mM MgCl2, 15 mM NaCl), and incubated in the presence of 20 μM radiolabelled erastin A9 and erastin A9 or erastin A8 for 15 minutes. The mixture was then deposited onto Protran BA85 0.45 μM binding filters (Whatman) using vacuum filtration. The filter was rinsed 5 times with 1 mL wash buffer (25 mM HEPES, 0.1% BSA), and then incubated in 5 mL scintillation liquid (Cytoscint, MP Biomedicals). Radioactivity was detected on a LKB Wallac 1211 RACKBETA Liquid Scintillation Counter.

cytochrome c = assay: Cytochrome c release from mitochondria; assay type: cell-based, human; conditions: BJ-TERT/LT/ST/RAS^V12 cells; staurosporine 1 μM or erastin 20 μg/mL, 6 h
Procedure: BJ-TERT/LT/ST/RAS^V12 cells were seeded in polystyrene 100×20 mm dishes in 10 ml media. After overnight incubation at 37° C. with 5% CO2, the cells were treated with nothing (NT), staurosporine (ST, 1 μM) or erastin (20 μg/mL) for 6 h, washed with 10 mL ice-cold PBS and lysed by passage through a 25-gauge needle (five strokes). Cell lysates were centrifuged at 1850 rpm for 5 min at 4° C. to remove the nuclear fraction. Mitochondria were removed from the soluble cytosolic fraction by pelleting at 10,000 rpm. Supernatant and mitochondrial pellets were solubilized in SDS-PAGE loading buffer and analyzed by western blot using anti-cytochrome c and pan-VDAC antibodies and IR-dye-linked secondary antibodies. VDACs are mitochondrial proteins, so their absence in the cytosolic lane indicates effective separation of cytosol (C) from mitochondria (M). Fluorescence was detected on a LI-COR Odyssey infrared scanner.
For the cytochrome c release assay, cells were washed with 10 mL of ice-cold PBS, suspended in 120 μL of buffer (300 mM sucrose, 0.1% BSA, 10 mM HEPES, pH 7.5, 10 mM KCl, 1.5 mM MgCl2, 1 mM EGTA, 1 mM EDTA, 1 mM dithiothreitol, 2 mM phenylmethanesulfonyl fluoride and 1 protease inhibitor tablet (Roche)) and incubated on ice for 15 min. […] Supernatant and mitochondrial pellets were solubilized in SDS-PAGE loading buffer and analyzed by western blotting.

Row | Compound | Cell death (%) [1] [%] | Effect on erastin-induced cell death [2] | PARP1 cleavage (PARP1) | other results
1 | COc1cc2c(cc1O)CC[C@@H]1[C@@H]2CC[C@]2(C)[C@@H](O)CC[C@@H]12 [2-ME, 2-methoxyestradiol] | 66 | partially suppressed erastin-induced cell death |  | 
2 | CC[C@@]1(O)C(=O)OCc2c1cc1n(c2=O)Cc2cc3ccccc3nc2-1 [camptothecin, reference compound] |  |  | degraded | percentage of cells in M1 region (Annexin V staining) [3]: 38%
3 | CCOc1ccccc1-n1c(C(C)N2CCN(C(C)=O)CC2)nc2ccccc2c1=O (centres unmarked) [erastin A8, 2-[1-(4-Acetyl-piperazin-1-yl)-ethyl]-3-(2-ethoxy-phenyl)-3H-quinazolin-4-one] |  |  |  | Selective lethality / activity of erastin analog [4]: inactive; Rate of NADH oxidation / permeability of outer mitochondrial membrane to NADH (murine VDAC3): had no effect on mitochondrial membrane permeability; Direct binding to VDAC2 (VDAC2): unlike the inactive erastin A8, directly binds VDAC2
4 | CN[C@@H]1C[C@H]2O[C@@](C)([C@@H]1OC)n1c3ccccc3c3c4c(c5c6ccccc6n2c5c31)C(=O)NC4 [staurosporine, reference compound] |  |  | cleaved from 110 kD to 85 kD | Cytochrome c release from mitochondria (cytochrome c): released
5 | antimycin | 51 | partially suppressed erastin-induced cell death |  | 
